Our source for the logP, Eff. % and Efficacy values is US9199941B2, “Pyrazole indanyl carboxamides” (BAYER CROPSCIENCE AG, priority 2012, dated 2015).

Data set [1] in a line: log P by HPLC on reversed phase columns (EEC directive 79/831 Annex V.A8). It counts as physicochemical. The settings on record: Table 1, compounds of formula (I); method [a]: LC-MS at pH 2.7, 0.1% formic acid in water / acetonitrile.
Data set [2] relates to Alternaria brassicae. Description: In vivo preventive test on Alternaria brassicae (leaf spot on radish). The settings on record: 500 ppm, preventive spray, radish plants, grading 6 days after contamination. Here is the method:
Radish plants (“Pernod Clair” variety), sown in starter cups on a 50/50 peat soil-pozzolana substrate and grown at 17° C., are treated at the cotyledon stage by spraying with the active ingredient prepared as described above. Plants, used as controls, are treated with the mixture of acetone/tween/DMSO/water not containing the active material. After 24 hours, the plants are contaminated by spraying the cotyledons with an aqueous suspension of Alternaria brassicae spores (50 000 spores per ml). The spores are collected from a 15-day-old culture. […] Grading (% of efficacy) is carried out 6 days after the contamination, in comparison with the control plants.

Data set [3] has as its system Puccinia recondita. Description: In vivo preventive test on Puccinia recondita (brown rust on wheat). Conditions: 500 ppm, preventive spray, wheat plants, grading 12 days after contamination. Here is the method: Plants, used as controls, are treated with the mixture of acetone/tween/DMSO/water not containing the active material. After 24 hours, the plants are contaminated by spraying the leaves with an aqueous suspension of Puccinia […] spores (100 000 spores per ml). […] Grading (% of efficacy) is carried out 12 days after the contamination, in comparison with the control plants.

In data set [4] the test system is Septoria tritici. In words: In vivo preventive test on Septoria tritici (leaf spot on wheat). The settings on record: 500 ppm, preventive spray, wheat plants, grading 24 days after contamination. Here is the method:
Wheat plants (“Scipion” variety), sown in starter cups on a 50/50 peat soil-pozzolana substrate and grown at 22° C., are treated at the 1-leaf stage (10 cm height) by spraying with the active ingredient prepared as described above. Plants, used as controls, are treated with the mixture of acetone/tween/DMSO/water not containing the active material. After 24 hours, the plants are contaminated by spraying the leaves with an aqueous suspension of cryopreserved Septoria tritici spores (500 000 spores per ml). […] Grading (% of efficacy) is carried out 24 days after the contamination, in comparison with the control plants.

The test system of data set [5] is Sphaerotheca fuliginea. Description: In vivo preventive test on Sphaerotheca fuliginea (powdery mildew on cucurbits). Conditions: 500 ppm, preventive spray, gherkin plants, grading 12 days after contamination. Here is the method: Gherkin plants (“Vert petit de Paris” variety), sown in starter cups on a 50/50 peat soil-pozzolana substrate and grown at 24° C., are treated at the Z11 cotyledon stage by spraying with the active ingredient prepared as described above. Plants, used as controls, are treated with the mixture of acetone/tween/DMSO/water not containing the active material. After 24 hours, the plants are contaminated by spraying the cotyledons with an aqueous suspension of Sphaerotheca fuliginea spores (100 000 spores per ml). The spores are collected from infected plants. The contaminated gherkin plants are incubated at about 20° C. and at 70-80% relative humidity. Grading (% of efficacy) is carried out 12 days after the contamination, in comparison with the control plants.

Data set [6] has as its system Uromyces appendiculatus. In words: In vivo preventive test on Uromyces appendiculatus (bean rust). The settings on record: 500 ppm, preventive spray, bean plants, grading 11 days after contamination. Here is the method: Bean plants (“Saxa” variety), sown in starter cups on a 50/50 peat soil-pozzolana substrate and grown at 24° C., are treated at the 2-leaf stage (9 cm height) by spraying with the active ingredient prepared as described above. Plants, used as controls, are treated with the mixture of acetone/tween/DMSO/water not containing the active material. After 24 hours, the plants are contaminated by spraying the leaves with an aqueous suspension of Uromyces appendiculatus spores (150 000 spores per ml). […] Grading (% of efficacy) is carried out 11 days after the contamination, in comparison with the control plants.

In data set [7] the test system is Pyrenophora teres. In words: In vivo preventive test on Pyrenophora teres (net blotch on barley). Conditions: preventive spray, barley plants, incubated 48 hours then 12 days; for Eff. %: 500 ppm. Here is the method:
Barley plants (“Plaisant” variety), sown in starter cups on a 50/50 peat soil-pozzolana substrate and grown at 22° C., are treated at the 1-leaf stage (10 cm height) by spraying with the active ingredient prepared as described above. Plants, used as controls, are treated with the mixture of acetone/tween/DMSO/water not containing the active material. After 24 hours, the plants are contaminated by spraying the leaves with an aqueous suspension of Pyrenophora teres spores (12 000 spores per ml). The spores are collected from a 12-day-old culture.

In the case of `CC1CC(CC(C)(C)C)c2cccc(NC(=O)c3cn(C)nc3C(F)F)c21` (centres unmarked) [Example 18], the logP in data set [1] is 4.44[a]. Further, the Eff. % in data set [2] came out at 83%; in data set [3], 100%; in data set [4] it was 93%; in data set [5], 100%; in data set [6] it was 100%.
For the molecule `Cn1cc(C(=O)Nc2cccc3c2CCC32OCCO2)c(C(F)F)n1` [Example 12], the logP in data set [1] is 1.9[a]. For the same molecule, the Eff. % in data set [2] was determined as 86%; in data set [3] it was 83%.
For the molecule `CC1CC2(CC2)c2cccc(NC(=S)c3cn(C)nc3C(F)(F)F)c21` (centres unmarked) [Example 41], the Eff. % in data set [2] is recorded as 75%; in data set [3] it was 100%; in data set [5], 98%; in data set [6] it was 100%.
For the molecule `CCON=C1CC(C)c2c(NC(=O)c3c(C)nn(C)c3F)cccc21` (centres unmarked) [Example 29], the logP in data set [1] is 2.76[a]. The Eff. % in data set [7] is listed as 75%; in data set [3] it was 81%; in data set [6], 80%.
In the case of `CON=C1CC(C)c2c(NC(=O)c3c(C)nn(C)c3F)cccc21` (centres unmarked) [Example 27], the logP in data set [1] is 2.33[a]. Further, the Eff. % amounted to 75% in data set [2] and 86% in data set [3].
With `CC1CC2(CC2)c2cccc(NC(=S)c3cn(C)nc3C(F)F)c21` (centres unmarked) [Example 38], the logP in data set [1] was 4.61[a]. Moreover, the Eff. % in data set [2] was 71%; in data set [3], 83%. In data set [7] (100 ppm), this molecule returned an Efficacy of 70%.
As to `Cn1cc(C(=O)Nc2cccc3c2CCC32CC2)c(C(F)F)n1` [Example 17], the logP in data set [1] is 2.96[a]. The Eff. % in data set [7] is 70%; in data set [3], 98%; in data set [6] it was 100%.
`CCCON=C1CC(C)c2c(NC(=O)c3c(C)nn(C)c3F)cccc21` (centres unmarked) [Example 19]: the logP in data set [1] was 3.24[a]. Besides, the Eff. % came out at 75% in data set [7], 81% in data set [3], 89% in data set [5] and 93% in data set [6].
In the case of `Cn1cc(C(=O)Nc2cccc3c2CCC3C(C)(C)C)c(C(F)F)n1` (centres unmarked) [Example 28], in data set [1], the logP is 3.94[a]. In addition, the Eff. % stood at 100% in data set [3], 86% in data set [4], 100% in data set [5] and 100% in data set [6].
As to `CC1CC(CC(C)(C)C)c2cccc(NC(=S)c3cn(C)nc3C(F)F)c21` (centres unmarked) [Example 42], the Eff. % in data set [2] was determined as 75%; in data set [3], 98%; in data set [4], 88%; in data set [5] it was 100%; in data set [6], 100%.
On to `CCCON=C1CC(C)c2c(NC(=O)c3cn(C)nc3C(F)F)cccc21` (centres unmarked) [Example 11], for which the logP in data set [1] was 3.26[a]. For the same molecule, the Eff. % in data set [2] stood at 93%; in data set [7], 83%; in data set [3], 81%; in data set [6] it was 90%.
Turning to `CCC1(C)CCc2c(NC(=O)c3cn(C)nc3C(F)F)cccc21` (centres unmarked) [Example 24], the logP in data set [1] was 3.62[a]. In addition, the Eff. % in data set [7] came out at 80%; in data set [3], 98%; in data set [4] it was 92%; in data set [5], 98%; in data set [6], 97%.
In the case of `CC1CC2(CC2(Cl)Cl)c2cccc(NC(=O)c3cn(C)nc3C(F)F)c21` (centres unmarked) [Example 3], the logP in data set [1] is 3.46[a]. Further, the Eff. % was found to be 81% in data set [7]; 94% in data set [3]; 100% in data set [4]; 100% in data set [5]; 100% in data set [6].
As to `CCCON=C1CCc2c(NC(=O)c3cn(C)nc3C(F)F)cccc21` [Example 30], the logP in data set [1] is 3.15[a]. Besides, the Eff. % in data set [3] is reported as 71%; in data set [4] it was 85%; in data set [5], 90%; in data set [6] it was 95%.
